{"source": "PubChem BioAssay AID504575", "about": "(Southern Research Specialized Biocontainment Screening …, 2011)", "data": [{"tested_on": "MAGI cell cytotoxicity, 2% serum", "test": "viability loss in MAGI reporter cells – cell-based, CXCR4-tropic MAGI assay, 2% serum, set 2, cytotoxicity control for HIV-1 antiviral lead project, dose response (AID 504575)", "units": {"TC50": "µM"}, "values": [{"smiles": "COc1ccccc1Cn1c(O)cc2nn(-c3nc4ccccc4s3)c(=O)c-2c1C", "TC50": 43.2}, {"smiles": "COc1ccc(CCn2c(O)cc3nn(-c4nc5ccccc5s4)c(=O)c-3c2C)cc1", "TC50": 13.8}, {"smiles": "COc1ccc(Cn2c(O)cc3nn(-c4nc5ccccc5s4)c(=O)c-3c2C)cc1", "TC50": 41.1}, {"smiles": "Cc1c2c(=O)n(-c3nc4ccccc4s3)nc-2cc(O)n1CCc1ccc(O)cc1", "TC50": 20.5}, {"smiles": "Cc1c2c(=O)n(-c3nc4ccccc4s3)nc-2cc(O)n1CCc1cccs1", "TC50": 74.8}, {"smiles": "Cc1c2c(=O)n(-c3nc4ccccc4s3)nc-2cc(O)n1CCC(C)C", "TC50": 65}, {"smiles": "Cc1c2c(=O)n(-c3nc4ccccc4s3)nc-2cc(O)n1Cc1ccccc1Cl", "TC50": 32.9}]}]}
